Results as given in patent US20090298169A1, “Pancreatic and Liver Endoderm Cells and Tissue by Differentiation of Definitive Endoderm Cells Obtained from Human Embryonic Stems” (The University of Georgia Research Foundation, priority 2006, published 2009).

Tests used:
[1] = tested on: PI3-kinase signaling pathway; assay: Western blot analysis of PI3-kinase signaling pathway activity (phosphorylated PKB/Akt, S6 kinase, S6 protein); type: cell-based, human; settings: BG01 cells maintained in the presence of inhibitor
Method: Activity of the PI3-kinase signaling pathway may be assessed by Western blot analysis. Briefly, detergent extracts are prepared from untreated and treated cell cultures, separated by SDS-PAGE and blotted to nitrocellulose. Expression of active forms of the PI3-kinase intracellular targets PKB/Akt, S6 kinase and S6 protein are then determined by probing the nitrocellulose with appropriate antibodies to phosphorylated forms of each of these proteins. Generally, 30 μg of total protein are evaluated for each sample, primary incubations were carried out at a 1:1000 dilution of antibody, and binding in each case is detected by standard ECL based methodology.

[2] = tested on: BG01 cells; assay: RT-PCR analysis of differentiation markers in inhibitor treated BG01 cells; type: cell-based, human
Method: (§1) The inhibitor studies are performed as described in Example 2.
Total RNA is isolated using TRIzol Reagent (GibcoBRL). RNA is run on a 1% agarose gel containing ethidium bromide and visualized using the AlphaImager™ 2200 Documentation and Analysis System to ensure RNA integrity. 10 μg of RNA is treated with DNase (Ambion), which is removed with DNase Inactivation Reagent (Ambion). cDNA is prepared with 500 ng of total RNA using the Superscript II Reverse transcriptase Kit (Invitrogen) using oligo(dT) primers. PCR reactions are carried out on 1 μl of cDNA. PCR products are run on a 2% agarose gel containing ethidium bromide and visualized using the Alphaamager™ 2200 Documentation and Analysis System. PCR primer sets used were GATA4, Mix1, Msx1, AFP, HNF4alpha, eHAND, Nanog, AFP and GAPDH.

[3] = tested on: BG01 cells; assay: Flow cytometry of cell surface markers (CD9) on inhibitor treated BG01 cells; type: cell-based, human
Method: as §1
For flow cytometry, the BG01 cells are washed with 1×PBS and fixed in 2% paraformaldehyde/1×PBS for 10 minutes at room temperature. The cells are then washed in 1×PBS and approximately 2×10^5 cells are incubated with primary antibody diluted in 1% BSA/1×PBS. The primary antibodies used are anti-CD9 and anti-thrombomodulin (Cymbus Biotechnology), FITC conjugated mouse monoclonal antibodies at a 1:10 dilution. Cells are incubated at 4° C. for 30 minutes and then washed twice in 1×PBS. Where appropriate, cells are resuspended in a secondary antibody, anti-mouse Alexa-488 (Molecular Probes) diluted 1:1000 in 1% BSA/PBS, incubated at 4° C. for 30 minutes, and then washed twice in 1×PBS. Cells are resuspended in 1% BSA/1×PBS and surface expression is analyzed using a Beckman Coulter FC500.

[4] = tested on: BG01 cells; assay: Morphology of BG01 hES cells cultured with PI3-kinase pathway inhibitors (standard microscopy); type: cell-based, human
Method: BG01 cells are passaged from feeders using the collagenase/trypsin method and are plated on matrigel coated dishes at 1×10^5 cells/35 mm dish in conditioned medium (CM; MEF conditioned medium plus 8 ng/ml bFGF). After approximately 24 hours, the media is replaced with fresh CM, CM with inhibitor (resuspended in EtOH), CM with EtOH, or with Spontaneous Differentiation medium (hES medium minus bFGF).
In alternative methods, the BG01 cells may be plated at different concentrations prior to contact with CM, CM with inhibitor and CM with EtOH Cells may be plated at the following concentrations: approximately 5×10^4 cells/35 mm dish, approximately 1×10^5 cells/35 mm dish, approximately 2×10^5 cells/35 mm dish, approximately 4×10^5 cells/35 mm dish and, approximately 6×10^5 cells/35 mm dish.
The inhibitor LY 294002 (Biomol) may be preferably used at the concentration range approximately 20-163 μM and the inhibitor Rapamycin (Calbiochem) is used at the concentration range approximately 1.5-30 nM. LY 294002 inhibits the PI3-kinase pathway by binding to the ATP docking site of p110. Rapamycin inhibits a subset of the PI3-kinase pathway by inhibiting mTOR (mammalian target of rapamycin).
Cells are grown in these conditions for approximately 72 hours with a medium change every 24 hours. Cells are harvested using the collagenase/trypsin method for flow cytometry and RT-PCR analysis and are scraped for biochemical analysis.
In undifferentiated cultures, individual cells are not easily discernable, being relatively small, irregular and without clearly apparent intercellular junctions at higher density. […] Individual cells are also more readily discernable at higher densities since discrete intercellular adhering junctions are evident between neighboring cells.

[5] = tested on: human definitive endoderm cells (DE); assay: Pancreatic endoderm formation from definitive endoderm with retinoic acid in FCS base media (Pdx1, Isl1 markers); type: cell-based
Method: (§2) BG01 hESCs were treated with LY 294002 (50 μM) for four days then switched to media containing DMEM/F12, 10% FCS, 50 ng/ml Fgf10 and 2 μM retinoic acid for up to four days. Untreated-untreated hESCs. Transcript levels were analyzed by QRT-PCR in triplicate and shown as the fold-increase over untreated samples (hESCs) after normalization to GAPDH reference transcript. Fold-induction of Pdx1 transcript levels are indicated.
as §2, with “consisting of” for “containing”, “Untreated: untreated” for “Untreated-untreated”, “transcript.” for “transcript. Fold-induction of Pdx1 transcript levels are indicated.”
The present invention relates to pancreatic endoderm cells (PE) which are obtained from definitive endoderm cells by exposing the definitive endoderm cells to an effective concentration of retinoic acid (at least about 0.05-0.1 μg/ml, preferably about 0.1-25 μg/ml, more preferably about 0.1-2.0 μg/ml) in base media comprising an effective amount of fetal calf serum (FCS— preferably about 10% of the base media plus serum) for a period of at least about 2 days, preferably at least about 4 days, and more preferably about 4 days, followed by exposing the cells obtained from the first step to FCS (preferably, about 10%) in base media for at least one day, preferably at least about 2 days in the absence of retinoic acid. This method preferably results in at least about 35-50% and preferably at least about 70-80+% of the cells in the treated sample expressing the pancreatic endoderm markers, Pdx1 and Isl1.
Definitive endoderm cells (from treatment above) are washed 2× with PBS. 2-3 ml Trypsin/EDTA solution is added and cells are triturated and collected in a 15 ml conical tube. DMEM/F12 with 10% FBS is added to stop the trypsinization and the cells are centrifuged at 200×g for 5 minutes. […]

[6] = tested on: BG01 hESCs; assay: AFP transcript induction (QRT-PCR) following treatment of definitive endoderm; type: cell-based, human; settings: DE from LY 294002 (50 μM, four days), then DMEM/F12, 10% FCS up to six more days, presence or absence of Fgf10
Method: (§3) BG01 hESCs were differentiated into definitive endoderm for four days following the addition of LY 294002 (50 μM). Media was changed to DMEM/F12, 10% FCS and cells grown for up to six more days. Untreated: untreated hESCs. AFP transcript levels were analyzed by QRT-PCR in triplicate and shown as the fold-increase over untreated samples (hESCs) after normalization to GAPDH reference transcript.
as §3, with “The first example relates to the generation of cells expressing the embryonic liver marker alphafetoprotein (AFP) following treatment of definitive endoderm. BG01” for “BG01”

## O=c1cc(N2CCOCC2)oc2c(-c3ccccc3)cccc12 [LY 294002, 2-(4-Morpholinyl)-8-phenyl-4H-1-benzopyran-4-one]
[1]
  activity of Akt: inhibited
  activity of S6: inhibited
  activity of S6 kinase: inhibited
[2]
  markers indicative of early differentiation: may be detected
[3]; after LY treatment
  cell surface CD markers expressed by undifferentiated hES cells (CD9, 27, 30, 46, 58 and 81): loss of a subset of cell surface CD markers
[3]; compared with spontaneous differentiation in adherent culture or embryoid bodies
  expression of CD9: may decrease more rapidly
[4]; BG01 cells after treatment, compared with undifferentiated cultures
  cell spreading and morphology after treatment: marked spreading and adopted obvious epitheloid cuboidal morphologies
[4]; cells plated at approximately 4×10^5 cells/35 mm dish or higher
  changes in morphology at high plating density: do not demonstrate the same morphological changes
[4]; cells plated lower than approximately 2×10^5 cells/35 mm dish
  changes in morphology at low plating density: display changes in morphology
[4]; cultured in the presence of inhibitor, matrigel, conditioned medium, approximately 72 hours
  morphological change of BG01 cells: undergo morphological change

## CC1=C(/C=C/C(C)=C/C=C/C(C)=C/C(=O)O)C(C)(C)CCC1 [retinoic acid, all-trans retinoic acid]
[5]; definitive endoderm cells cultured with retinoic acid in basal cell media
  homogeneity of differentiated cells: greater homogeneity than spontaneously differentiated cells
[5]; following treatment
  Isl1 expression: marked increase
[5]; from definitive endoderm cells
  population of cells pure for the PE markers Pdx1 and Isl1: 70-80%

B1: Fgf10: fibroblast growth factor 10 (protein, UniProt O15520 38-208, looked up)
Fibroblast growth factor 10: QALGQDMVSPEATNSSSSSFSSPSSAGRHVRSYNHLQGDVRWRKLFSFTKYFLKIEKNGKVSGTKKENCPYSILEITSVEIGVVAVKAINSNYYLAMNKKGKLYGSKEFNNDCKLKERIEENGYNTYASFNWQHNGRQMYVALNGKGAPRRGQKTRRKNTSAHFLPMVVHS
[6]
  AFP induction: optimal AFP induction
